These results are taken from patent US11104735B2, “Inhibition of cytokine-induced SH2 protein in NK cells” (The Walter and Eliza Hall Institute of Medical Research, priority 2015, dated 2021).

Residues, ends and D or L forms follow the SMILES beside them. *: point of attachment. Cbz = O=C(OCc1ccccc1)*

In experiment [1] the test system is advanced malignant melanoma. The settings on record: patients; cited from earlier work.
Experiment [2] concerns the target T1, JAK3 phosphopeptide (JAK3-Y980,Y981) (Homo sapiens, UniProt P52333).
T1 construct: purchased Genscript
Nature of the experiment: ITC, CIS constructs binding to JAK3 phosphopeptide. Conditions: CIS constructs with elongins B and C. As to the method:
300 μM phosphopeptides were titrated into a 30 μM solution of the GST-CIS-SH2-BC ternary complex. ITC titration curves are shown. The titration curves all fitted well to a single-site model.
Isothermal calorimetric titrations were performed with a Microcal ITC200 (GE Healthcare). Phosphopeptides were obtained from Genscript. An optimised GST-CIS protein construct was prepared in which the internal PEST region ([…]) was deleted. The resulting ternary GST-CIS-SH2-SB complexes were dialysed against buffer (20 mM Tris pH 8.0, 100 mM NaCl, 2 mM 2-mercaptoethanol). Experiments were performed at 298 K unless stated otherwise. Typically, 12×3.15 μl injections of 300 μM phosphopeptides were titrated into a 30 μM solution of the GST-CIS-SH2-SB ternary complex. The heat of dilution of GST-CIS-SH2-BC was subtracted from the raw data of the binding experiment. Data were analysed using the evaluation software, Microcal Origin version 5.0. The binding curve fitted a single-site binding mode and all KD values were determined from duplicate experiments.
Background: In ITC the heat of successive injections is recorded.

The target in experiment [3] is T2, CIS (Homo sapiens, UniProt Q9NSE2, DEL174-202).
T2 construct: fragment: residues 66-258 with a deletion of; GST (N); made in house; host or cells: E. coli BL21(DE3)
Nature of the experiment: Kinase inhibition assay with competitor of CIS-SH2 binding. The settings on record: for Effect on CIS-mediated inhibition of JAK1 JH1: CIS-SH2-BC, excess JAK1-Y1034 phosphopeptide as competitor. It is filed as biochemical. As to the method: (a) Cultured NK cells from wild-type and Cish^−/− mice were lysed, mRNA purified and analysed by RNAseq. Mean RPKM values for duplicate samples (left panel). JAK1 mRNA levels were analysed by Q-PCR (right panel). Mean±S.D., n=3. (b) 4-12% Coomassie-stained SDS-PAGE gel showing purified hCIS-SH2-BC complex, elongin B and elongin C. (c) Isothermal calorimetry (ITC) was used to measure the affinity of hCIS-SH2-BC binding to phosphopeptides corresponding to tyrosines within the JAK1/3 kinase domain activation loops and IL-2Rβ and γ cytoplasmic domains. […] were titrated into a 30 μM solution of the GST-CIS-SH2-BC ternary complex. ITC titration curves and tabular view of some results (inset) showing mean±S.D. from two independent experiments. N.D.=Not detectable, p=phosphorylated. The titration curves all fitted well to a single-site model. (d) Cultured wild-type NK cells were washed and starved of IL-15 for 4 h, with and without addition of the proteasomal inhibitor, MG132. Cells were then stimulated with 50 ng ml^−1 IL-15 for the indicated times, prior to cell lysis and Western blotting with antibodies to the indicated proteins. (e) Kinase inhibition assays were performed with the kinase domain (JH1) of JAK1 in the presence of CIS-SH2-BC with and without excess JAK1-Y1034 phosphopeptide as a competitor. […] Data were normalised to no-CIS controls.
(c) Alternatively, 50 μM JAK1-Y1034 or JAK3-Y980,Y981 phosphopeptides were used as competitor. Data were normalised to no-CIS controls. All CIS constructs contained the SOCS box and were expressed and purified as a trimeric complex consisting of CIS, elongin B and elongin C.
Kinase inhibition assays were performed essentially as described (Babon et al., 2012). Briefly, 130 μM STAT5b peptide (SEQ ID NO:18 […]) was incubated with 5 nM JAK1 at 25° C. for 30-60 min in 20 mM Tris pH 8.0, 100 mM NaCl, 5 mM 2-mercaptoethanol, 0.2 mg ml^−1 bovine serum albumin, 2 mM MgCl2, 100 μM ATP and 1 mCi γ-[32P]ATP. Recombinant CIS-SH2-BC was present at concentrations ranging from 0-30 μM. After incubation, the reaction was spotted onto P81 phosphocellulose paper and quenched in 5% H3PO4. The paper was washed (4×200 ml, 15 min) with 5% H3PO4 and exposed to a phosphorimager plate (Fuji). Quantitation was performed using Fuji software and IC50 curves calculated using Graphpad Prism.

Experiment [4] has as its system JAK1 phosphorylation in 293T cells. The experiment is described as follows: JAK1 phosphorylation in 293T cells co-expressing JAK1 and CIS. The class given is cell-based, human. Conditions: pre-incubation of 293T cells, 10 μM for 4 h. As to the method: (a) Isothermal calorimetry (ITC) was used to measure the affinity of hCIS-SH2-BC binding to phosphopeptides corresponding to tyrosines within the JAK1/3 kinase domain activation loops and IL-2Rβ cytoplasmic domains. Tabular view of the results, showing mean±S.D. from two independent experiments. N.D.=Not detectable, p=phosphorylated. […] In some instances, cells were treated with the proteasome inhibitor, MG132. […] Protein expression levels are shown by anti-FLAG blots of whole cell lysates (lower panels). […] Protein levels are shown in the lower panels by anti-FLAG blot of cell lysates. (e) Using a cell-free system, FLAG-JAK1 was incubated with (+) and without (−) the CIS-E3 ligase complex (CIS-SH2-BC with Cullin5 and Rbx2), together with ubiquitin, E1 and E2 enzymes at 37° C. for the times indicated. JAK1 ubiquitination was visualised by Western blotting with antibodies to […]. […] Data were normalised to no-CIS controls. […] See also FIG. 9.
Lysates were clarified by centrifugation at 16,060×g for 15 min at 4° C. Protein concentrations were determined by the BCA method (Pierce, Rockford). […] In some instances, cells were pre-treated with 10 μM MG132 for 4 h to block proteasomal degradation. 48 h post-transfection cells were lysed in KALB buffer (Nicholson et al., 1995). FLAG proteins were immunoprecipitated using M2-beads (Sigma) and proteins eluted in SDS sample buffer. […]

In experiment [5] the test system is wild-type NK cells. Nature of the experiment: JAK1 phosphorylation in IL-15 stimulated wild-type NK cells. It is filed as cell-based, mouse. The settings on record: IL-15 50 ng/ml. On the procedure:
(a) Cultured NK cells from wild-type and Cish^−/− mice were lysed, mRNA purified and analysed by RNAseq. Mean RPKM values for duplicate samples (left panel). JAK1 mRNA levels were analysed by Q-PCR (right panel). Mean±S.D., n=3. (b) 4-12% Coomassie-stained SDS-PAGE gel showing purified hCIS-SH2-BC complex, elongin B and elongin C. (c) Isothermal calorimetry (ITC) was used to measure the affinity of hCIS-SH2-BC binding to phosphopeptides corresponding to tyrosines within the JAK1/3 kinase domain activation loops and IL-2Rβ and γ cytoplasmic domains. […] were titrated into a 30 μM solution of the GST-CIS-SH2-BC ternary complex. ITC titration curves and tabular view of some results (inset) showing mean±S.D. from two independent experiments. N.D.=Not detectable, p=phosphorylated. The titration curves all fitted well to a single-site model. (d) Cultured wild-type NK cells were washed and starved of IL-15 for 4 h, with and without addition of the proteasomal inhibitor, MG132. Cells were then stimulated with 50 ng ml^−1 IL-15 for the indicated times, prior to cell lysis and Western blotting with antibodies to the indicated proteins. […]
Lysates were clarified by centrifugation at 16,060×g for 15 min at 4° C. Protein concentrations were determined by the BCA method (Pierce, Rockford). […]

Experiment [6] has as its system primary human NK cells. Nature of the experiment: Immunoblot of IL-15 treated primary human NK cells. It is filed as cell-based. The settings on record: 2 h with IL-15, 10 μM. As to the method:
Patient-derived human NK cells (a) or NK lymphoma cell lines (b) SNK-10, (c) NKL and NK6, (d) NK-92 were washed free of cytokine and rested for 4 h (a) or 16 h (b-d) prior to treatment with IL-15 for the indicated times. In some instances, cells were incubated with the proteasomal inhibitor MG132 (10 μM). Cells were lysed and analysed by immunoblotting with antibodies to the indicated phosphorylated (p) and total proteins.
In general terms: A western blot detects proteins with antibodies after separation by electrophoresis.

In experiment [7] the test system is LWT1 melanoma cells. Nature of the experiment: LWT1 experimental lung metastasis. It is filed as in vivo, mouse. Conditions: Cish−/− mice, 7.5×10^5 cells i.v., day 14. As to the method: Mice were monitored for tumor development and were euthanized at the point of abdominal swelling and discomfort. Improved survival between groups was assessed by the Log-rank Mantel-Cox test. (D) Groups of 5-15 B6.WT (Cish^+/+) or B6.Cish^-/- mice were injected i.v. with 5×10^5 RM-1 prostate carcinoma cells and treated with either cIg, anti-CD96, anti-PD-1, anti-CTLA-4 or anti-PD1/anti-CTLA-4 combination (250 μg i.p. each on days 0 and 3). (E) Groups of 8-10 B6.WT (Cish^+1 or B6.Cish^-/- mice were injected i.v. with 7.5×10^5 B16F10 melanoma cells and treated with either 250 μg cIg or anti-CD96 mAb (i.p. on days 0 and 3). (F) Groups of 5-6 B6.WT (Cish^+1 or B6.Cish^-/- mice were injected i.v. with 7.5×10^5 LWT1 melanoma cells and treated with either vehicle or PLX4720 (10 mg/kg i.p., daily from day 0 to 6). Lungs were harvested on (A, D, F) day 14 or (B, E) day 13 and macrometastases counted. Individual mice are shown by each symbol and the results are plotted as mean±SEM. Statistically significant differences as indicated were determined by one-way ANOVA with Tukey post-test (for multiple comparisons) (*: […]; **: p<0.01; ***: p<0.001; ****: p<0.0001). […] Lungs were harvested on day 14 and macrometastases counted. […] Lungs were harvested on day 14 and either fixed in Bouin's solution and B16F10 metastases counted^44 or analysed for NK cell expansion by flow cytometry. […]

In the case of “Ipilimumab: antibody-based therapy that targets CTLA-4”, the Tumour responses in experiment [1] was 10-12%. For “full-length CIS: human full-length CIS protein expressed with elongins B and C as trimeric complex”, in experiment [2], the “Binding affinity (ITC) to JAK3 phosphopeptide” value is given as “comparable affinity”. Consider “JAK1-Y1034: phosphopeptide corresponding to a singly-phosphorylated JAK1 activation loop (Tyr1034)”, for which the “Effect on CIS inhibition of JAK1 kinase activity” value in experiment [3] (50 μM free phosphopeptide as competitor) is listed as “dramatically reduced the ability of CIS to inhibit JAK1 kinase activity”. The results for the “Effect on CIS-mediated inhibition of JAK1 JH1” value in experiment [3] (listed as JAK1 activation loop peptide) and in experiment [3] (listed as pY1034 peptide) were “only partial reduction of inhibition” and “partially reduced CIS-mediated inhibition”, respectively. `CC(C)C[C@@H](C=O)NC(=O)[C@H](CC(C)C)NC(=O)[C@H](CC(C)C)NC(=O)OCc1ccccc1` [MG132] (Cbz-Leu-Leu-Leu-aldehyde): in experiment [4], the “Effect on CIS-mediated regulation of JAK1 phosphorylation” value is reported as “reduced CIS-mediated regulation of JAK1 phosphorylation”. Besides, the “Phosphorylation of endogenous JAK1” value in experiment [5] was “increase in phosphorylation of endogenous JAK1”. In addition, in experiment [6], the JAK1 phosphorylation entry is given as “remained reduced”; the “Total JAK1 and CIS levels” value was “increase total JAK1 and CIS levels”. With `O=P(O)(O)Oc1ccccc1` [phenyl phosphate, reference compound], the “Effect on CIS inhibition of JAK1 kinase activity” value in experiment [3] (excess phenyl phosphate as competitor, all CIS constructs) was “abrogated the ability of all CIS constructs to inhibit JAK1 kinase activity”.

Regarding `CCCS(=O)(=O)Nc1ccc(F)c(C(=O)c2c[nH]c3ncc(Cl)cc23)c1F` [PLX4720], the LWT1 lung metastasis result in experiment [7] was “further reduced”.
